# Reference: ChEMBL document CHEMBL4602694, “Suppression of Drug-Resistant Non-Small-Cell Lung Cancer with Inhibitors Targeting Minichromosomal Maintenance Protein” (J Med Chem, 2020)
# Active and inactive are the calls of the source. The rule behind the calls is not given here.
# How the values were obtained:
# [1] = biological target: DNA replication licensing factor MCM7 (Homo sapiens) (UniProt P33993); experiment: Induction of ubiquitination of MCM7 in human NCI-H1975 cells incubated for 24 hrs by immunoblot analysis; format: cell-based
# Sequence of DNA replication licensing factor MCM7 (Homo sapiens) (P33993 whole entry): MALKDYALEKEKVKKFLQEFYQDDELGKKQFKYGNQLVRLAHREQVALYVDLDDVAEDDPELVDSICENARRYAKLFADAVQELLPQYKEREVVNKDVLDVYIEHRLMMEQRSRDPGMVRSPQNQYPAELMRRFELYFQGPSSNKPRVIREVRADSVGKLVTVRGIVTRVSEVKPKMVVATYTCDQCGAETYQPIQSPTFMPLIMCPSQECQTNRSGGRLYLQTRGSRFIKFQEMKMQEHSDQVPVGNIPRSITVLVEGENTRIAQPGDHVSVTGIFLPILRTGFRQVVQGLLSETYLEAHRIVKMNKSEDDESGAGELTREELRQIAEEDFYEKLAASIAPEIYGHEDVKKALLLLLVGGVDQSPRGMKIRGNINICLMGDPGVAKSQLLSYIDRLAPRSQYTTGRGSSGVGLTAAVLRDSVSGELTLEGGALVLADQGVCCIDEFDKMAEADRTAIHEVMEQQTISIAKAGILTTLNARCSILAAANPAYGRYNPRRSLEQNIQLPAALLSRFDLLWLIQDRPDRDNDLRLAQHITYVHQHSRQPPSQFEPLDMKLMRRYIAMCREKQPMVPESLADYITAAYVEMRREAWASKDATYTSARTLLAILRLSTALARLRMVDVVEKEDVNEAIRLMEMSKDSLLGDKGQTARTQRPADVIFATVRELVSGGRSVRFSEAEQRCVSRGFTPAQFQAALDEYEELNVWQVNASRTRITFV
# [2] = biological target: DNA replication licensing factor MCM2 (Homo sapiens) (UniProt P49736); experiment: Induction of ubiquitination of MCM2 in human NCI-H1975 cells incubated for 24 hrs by immunoblot analysis (reference value: 1); format: cell-based
# Sequence of DNA replication licensing factor MCM2 (Homo sapiens) (P49736 whole entry): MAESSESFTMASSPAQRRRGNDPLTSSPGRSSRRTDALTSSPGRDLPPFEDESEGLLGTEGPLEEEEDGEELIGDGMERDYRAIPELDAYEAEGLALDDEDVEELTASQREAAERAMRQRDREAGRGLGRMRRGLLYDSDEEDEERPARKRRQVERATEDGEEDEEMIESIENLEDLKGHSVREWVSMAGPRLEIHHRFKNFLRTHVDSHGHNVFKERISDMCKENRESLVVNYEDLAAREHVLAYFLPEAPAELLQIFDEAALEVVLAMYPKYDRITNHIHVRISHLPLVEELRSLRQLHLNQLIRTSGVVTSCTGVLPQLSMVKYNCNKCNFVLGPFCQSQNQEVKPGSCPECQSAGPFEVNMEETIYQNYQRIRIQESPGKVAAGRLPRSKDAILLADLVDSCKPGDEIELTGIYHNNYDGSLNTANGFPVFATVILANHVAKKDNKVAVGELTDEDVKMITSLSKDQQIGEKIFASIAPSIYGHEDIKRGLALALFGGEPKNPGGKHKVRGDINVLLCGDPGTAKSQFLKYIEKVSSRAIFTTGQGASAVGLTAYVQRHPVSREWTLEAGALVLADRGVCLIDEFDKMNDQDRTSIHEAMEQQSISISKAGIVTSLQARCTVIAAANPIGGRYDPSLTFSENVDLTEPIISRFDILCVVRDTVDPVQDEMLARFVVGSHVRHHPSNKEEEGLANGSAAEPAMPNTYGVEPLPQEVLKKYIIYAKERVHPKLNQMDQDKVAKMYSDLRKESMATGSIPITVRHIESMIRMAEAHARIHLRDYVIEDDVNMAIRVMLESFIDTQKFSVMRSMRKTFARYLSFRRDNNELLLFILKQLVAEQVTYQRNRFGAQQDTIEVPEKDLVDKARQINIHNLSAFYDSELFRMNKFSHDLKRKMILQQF
# [3] = test system: DNA replication licensing factor MCM2 (Homo sapiens), P49736 [Q341A]; experiment: Induction of ubiquitination of FLAG-tagged MCM2 Q341A mutant (unknown origin) expressed in human NCI-H1975 cells incubated for 24 hrs by magnetic beads technique based immunoblot analysis; format: cell-based
# Sequence of DNA replication licensing factor MCM2 (Homo sapiens), P49736 [Q341A] (P49736 whole entry Q341A): as the sequence (P49736 whole entry) above, with Q341A counted along it
# [4] = biological target: DNA replication licensing factor MCM2 (Homo sapiens) (UniProt P49736); experiment: Induction of ubiquitination of MCM2 in human NCI-H1975 cells at 140 nM in presence of MG132 incubated for 48 hrs followed by MG132 addition and measured after 12 hrs by immunoblot analysis; format: cell-based
# CL1-0 = experiment: Antiproliferative activity against human CL1-0 cells assessed as reduction in cell viability incubated for 72 hrs by SRB assay; format: functional, cell-based; conditions: CL1-0, 72 h
# [5] = biological target: T1, DNA replication licensing factor MCM5 (Homo sapiens) (UniProt P33992); experiment: Induction of ubiquitination of MCM5 in human NCI-H1975 cells incubated for 24 hrs by immunoblot analysis (reference value: 1); format: cell-based
# T1 sequence (whole entry): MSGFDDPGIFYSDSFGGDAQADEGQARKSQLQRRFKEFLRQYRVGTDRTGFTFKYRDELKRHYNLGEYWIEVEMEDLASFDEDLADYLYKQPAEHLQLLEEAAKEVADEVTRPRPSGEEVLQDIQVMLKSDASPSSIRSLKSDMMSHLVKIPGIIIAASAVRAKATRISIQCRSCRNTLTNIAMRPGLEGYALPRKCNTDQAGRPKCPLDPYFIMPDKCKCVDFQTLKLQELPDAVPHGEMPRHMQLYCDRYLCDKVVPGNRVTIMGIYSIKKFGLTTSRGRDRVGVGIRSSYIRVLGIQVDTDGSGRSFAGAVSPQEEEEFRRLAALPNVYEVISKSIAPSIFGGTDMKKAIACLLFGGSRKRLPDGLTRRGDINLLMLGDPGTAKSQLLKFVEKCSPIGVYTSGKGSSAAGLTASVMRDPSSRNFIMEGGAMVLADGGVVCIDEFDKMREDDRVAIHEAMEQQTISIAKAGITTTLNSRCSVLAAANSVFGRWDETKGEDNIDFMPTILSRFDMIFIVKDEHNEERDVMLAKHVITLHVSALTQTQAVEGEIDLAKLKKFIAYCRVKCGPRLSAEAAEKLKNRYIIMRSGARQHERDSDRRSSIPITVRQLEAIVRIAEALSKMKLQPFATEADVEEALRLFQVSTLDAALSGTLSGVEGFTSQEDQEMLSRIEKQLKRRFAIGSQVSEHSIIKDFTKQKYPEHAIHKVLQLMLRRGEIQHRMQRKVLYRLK
# [6] = biological target: T2, DNA replication licensing factor MCM6 (Homo sapiens) (UniProt Q14566); experiment: Induction of ubiquitination of MCM6 in human NCI-H1975 cells incubated for 24 hrs by immunoblot analysis (reference value: 1); format: cell-based
# T2 sequence (whole entry): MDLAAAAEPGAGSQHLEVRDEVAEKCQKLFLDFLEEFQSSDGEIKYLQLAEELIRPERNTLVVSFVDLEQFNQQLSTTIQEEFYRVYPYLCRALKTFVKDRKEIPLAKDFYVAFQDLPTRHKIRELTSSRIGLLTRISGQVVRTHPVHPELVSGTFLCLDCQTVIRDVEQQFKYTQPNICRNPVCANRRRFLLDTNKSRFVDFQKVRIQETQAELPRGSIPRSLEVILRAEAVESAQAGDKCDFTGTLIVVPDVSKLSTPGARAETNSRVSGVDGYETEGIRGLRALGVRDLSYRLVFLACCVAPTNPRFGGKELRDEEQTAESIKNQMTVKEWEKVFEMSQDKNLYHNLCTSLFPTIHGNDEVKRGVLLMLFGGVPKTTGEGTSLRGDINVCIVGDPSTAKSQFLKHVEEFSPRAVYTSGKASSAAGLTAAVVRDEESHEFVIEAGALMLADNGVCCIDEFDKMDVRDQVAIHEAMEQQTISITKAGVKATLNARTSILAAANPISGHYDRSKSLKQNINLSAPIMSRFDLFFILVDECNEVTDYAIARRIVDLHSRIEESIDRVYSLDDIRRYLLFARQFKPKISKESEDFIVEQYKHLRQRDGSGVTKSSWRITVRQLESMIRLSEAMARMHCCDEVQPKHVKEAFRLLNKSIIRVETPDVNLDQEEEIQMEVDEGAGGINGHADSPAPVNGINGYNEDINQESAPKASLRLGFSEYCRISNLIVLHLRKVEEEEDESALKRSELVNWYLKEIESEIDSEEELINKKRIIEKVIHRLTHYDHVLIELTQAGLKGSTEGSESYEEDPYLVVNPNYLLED
# [7] = biological target: T3, DNA replication licensing factor MCM3 (Homo sapiens) (UniProt P25205); experiment: Induction of ubiquitination of MCM3 in human NCI-H1975 cells incubated for 24 hrs by immunoblot analysis (reference value: 1); format: cell-based
# T3 sequence (whole entry): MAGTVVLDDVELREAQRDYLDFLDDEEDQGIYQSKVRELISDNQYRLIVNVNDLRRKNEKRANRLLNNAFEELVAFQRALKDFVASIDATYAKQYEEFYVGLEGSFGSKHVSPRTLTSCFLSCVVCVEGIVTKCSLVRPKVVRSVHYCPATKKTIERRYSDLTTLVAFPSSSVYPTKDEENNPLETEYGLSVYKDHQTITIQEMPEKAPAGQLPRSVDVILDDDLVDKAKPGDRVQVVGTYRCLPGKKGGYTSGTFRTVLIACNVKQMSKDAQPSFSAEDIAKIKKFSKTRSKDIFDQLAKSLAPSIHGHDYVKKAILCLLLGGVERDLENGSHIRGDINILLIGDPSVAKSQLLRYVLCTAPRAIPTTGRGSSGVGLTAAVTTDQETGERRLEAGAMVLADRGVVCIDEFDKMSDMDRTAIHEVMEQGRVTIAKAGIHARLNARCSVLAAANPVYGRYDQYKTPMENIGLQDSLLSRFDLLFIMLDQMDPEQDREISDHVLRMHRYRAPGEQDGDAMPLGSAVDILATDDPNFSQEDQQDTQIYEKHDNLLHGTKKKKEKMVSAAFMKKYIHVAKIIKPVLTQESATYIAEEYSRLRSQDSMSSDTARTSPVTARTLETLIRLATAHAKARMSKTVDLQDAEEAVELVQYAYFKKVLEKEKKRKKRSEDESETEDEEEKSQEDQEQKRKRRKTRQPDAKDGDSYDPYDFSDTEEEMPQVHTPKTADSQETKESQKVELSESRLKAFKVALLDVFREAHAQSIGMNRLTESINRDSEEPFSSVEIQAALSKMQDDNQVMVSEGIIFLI
# [8] = Toxicity in athymic nude BALB/c mouse xenografted with human NCI-H1975 cells assessed as effect on serum blood urea nitrogen at 1 or 4 mg/kg, ip administered for 4 weeks; format: organism-based; conditions: in vivo, 672 h
structure (smiles),measurement,setting,value
Cc1oc2c(c1C(=O)NCCCn1ccnc1)C(=O)c1ccccc1C2=O,Activity,[1],Dose-dependent effect
same,Activity,[2],0.7
same,Activity,[3],inactive
same,Activity,[4],Active
same,IC50,CL1-0,< 100 nM
same,Activity,[5],0.8
same,Activity,[6],0.5
same,Activity,[7],1.1
same,Activity,[8],Non-Toxic
